Experimental data published in patent US4582844A, “Antithrombotic 4,5 di-t-butyl-imidazole derivatives” (Hoffmann-La Roche Inc., priority 1980, dated 1986).

System: Human platelet-rich plasma (blood platelets)
Assay: Collagen-induced blood platelet aggregation (aggregometer method of Born; maximum aggregation velocity)
Type: cell-based
Details: human citrated platelet-rich plasma, 10 min preincubation at 37° C., collagen fibrils
Method: The maximum aggregation velocity was taken as the test parameter and the effective concentration (EC50) was ascertained from dosage-activity curves.
Human platelet-rich plasma was obtained by centrifugation from citrated venous blood. The experiments were carried out with suspensions of the test substances in 0.9% sodium chloride. 0.18 ml of citrate plasma was treated with a 10 μl suspension of the test compound and incubated at 37° C. for 10 minutes, whereupon the aggregation was initiated by adding 10 μl of a suspension of collagen fibrils.

SMILES	EC50 [nM]
COc1cc(-c2nc(C(C)(C)C)c(C(C)(C)C)[nH]2)cc(OC)c1OC [4,5-di-t-butyl-2-(3,4,5-trimethoxyphenyl)-imidazole]	720
CC(C)(C)c1nc(-c2ccccc2)[nH]c1C(C)(C)C [4,5-Di-t-butyl-2-phenylimidazole, 4,5-di-t-butyl-2-phenylimidazole]	600
CC(C)(C)c1nc(-c2ccc(F)cc2)[nH]c1C(C)(C)C [4,5-Di-t-butyl-2-(4-fluorophenyl)-imidazole]	500
CC(C)(C)c1nc(-c2ccc3c(c2)OCO3)[nH]c1C(C)(C)C [4,5-di-t-butyl-2-(3,4-methylenedioxyphenyl)-imidazole]	550
COc1cc(-c2nc(C(C)(C)C)c(C(C)(C)C)[nH]2)cc2c1OCO2 [4,5-di-t-butyl-2-(5-methoxy-3,4-methylenedioxyphenyl)-imidazole]	14400
